Laboratory results: patent US10005792B2, “Aminoindane-, aminotetrahydronaphthalene- and aminobenzocyclobutane-derived PRMT5-inhibitors” (CTXT PTY LTD, priority 2014, dated 2018)
Structures can show the parent of a compound that is named as a salt.

Molecular target: T1, Full-length PRMT5 enzyme co-expressed with MEP50 (Homo sapiens (Human), UniProt O14744)
Assay: Revised PRMT5 Biochemical Assay
Settings: 1 μM histone H4 derived peptide substrate, 1 μM S-Adenosyl methionine, 4 hours at 37 degree Celsius, Transcreener EPIGEN fluorescence polarisation
Procedure: (§1) Compounds of the invention may be tested for in vitro activity in the following assay: A histone H4 derived peptide is used as substrate (amino acid sequence: […]NH2). Full-length PRMT5 enzyme (NCBI Reference sequence NP-006100.2) was co-expressed with Hiss-MEP50 in insect cells and purified via Nickel immobilized metal affinity and gel filtration chromatography (“the enzyme”).
The 6 μL reactions are run in Greiner brand black 384-well low volume assay plates. All reactions contained assay buffer (phosphate buffered saline, 0.01% (v/v) Tween-20, 0.01% (w/v) albumin from chicken egg white, 1 mM Dithiothreitol, 1 μM peptide substrate, 1 μM S-Adenosyl methionine, and 15 ng/reaction enzyme, with the enzyme being omitted from negative control reactions. Compounds were added in a volume of 100 nL from dilution series prepared in DMSO, positive and negative control reactions receiving the same volume DMSO without compound. The plates were sealed with adhesive seals and incubated for 4 hours at 37 degree Celsius. Reaction progress was measured using the Transcreener™ EPIGEN methyltransferase assay (BellBrook Labs, Madison, Wis.) as recommended by the manufacturer. To each reaction 2 μL detection mix were added, containing coupling enzymes, fluorescence polarisation tracer, and AMP antibody. Plates were incubated for 90 minutes before being read on a PerkinElmer EnVision™ plate reader in fluorescence polarisation mode. IC50 values were obtained from the raw readings by calculating percent inhibition (% I) for each reaction relative to controls on the same plate (% I=(I−CN)/(CP−CN) where CN/CP are the averages of the negative/positive reactions, respectively), then fitting the % I data vs. compound concentration [I] to % I=([…]) where A is the lower asymptote, B is the upper asymptote, C is the IC50 value, and D is the slope.

T1 sequence (O14744 whole entry): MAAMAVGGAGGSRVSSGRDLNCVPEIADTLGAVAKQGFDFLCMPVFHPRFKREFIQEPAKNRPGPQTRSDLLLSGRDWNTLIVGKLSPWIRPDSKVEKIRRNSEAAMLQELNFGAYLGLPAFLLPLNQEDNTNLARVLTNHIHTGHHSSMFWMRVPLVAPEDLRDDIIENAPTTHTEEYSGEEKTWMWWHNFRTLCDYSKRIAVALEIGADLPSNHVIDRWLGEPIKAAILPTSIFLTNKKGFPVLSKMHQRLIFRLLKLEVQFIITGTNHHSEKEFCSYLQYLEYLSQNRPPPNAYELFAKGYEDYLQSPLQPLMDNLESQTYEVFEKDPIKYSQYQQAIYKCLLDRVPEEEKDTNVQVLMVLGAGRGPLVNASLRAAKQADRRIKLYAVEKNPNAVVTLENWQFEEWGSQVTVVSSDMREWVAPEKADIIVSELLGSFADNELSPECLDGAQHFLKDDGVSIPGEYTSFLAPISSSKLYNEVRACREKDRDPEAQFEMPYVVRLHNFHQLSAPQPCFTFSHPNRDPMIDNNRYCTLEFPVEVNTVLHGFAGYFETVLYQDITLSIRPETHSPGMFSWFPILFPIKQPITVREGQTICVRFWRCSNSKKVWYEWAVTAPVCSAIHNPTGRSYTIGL
T1 sequence (Q9BQA1 whole entry partner): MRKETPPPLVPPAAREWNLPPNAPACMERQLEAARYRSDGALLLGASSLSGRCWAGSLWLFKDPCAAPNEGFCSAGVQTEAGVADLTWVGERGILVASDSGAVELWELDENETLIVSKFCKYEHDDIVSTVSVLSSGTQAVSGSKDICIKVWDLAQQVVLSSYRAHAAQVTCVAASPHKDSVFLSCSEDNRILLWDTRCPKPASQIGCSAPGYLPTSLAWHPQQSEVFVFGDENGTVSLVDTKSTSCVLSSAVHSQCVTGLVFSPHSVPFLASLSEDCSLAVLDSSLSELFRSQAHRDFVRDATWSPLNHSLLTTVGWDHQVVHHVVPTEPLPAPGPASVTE

In order of rising IC50:
1. O=C(NC[C@@H](O)CNC1Cc2ccccc2C1)c1ccc(C(=O)N2[C@@H]3CCC[C@H]2COC3)cc1 [Compound 136, 4-((1R,5S)-3-Oxa-9-azabicyclo[3.3.1]nonane-9-carbonyl)-N—((S)-3-((2,3-dihydro-1H-inden-2-yl)amino)-2-hydroxypropyl)benzamide]  50 nM
2. CCOc1cc(C(=O)N2CCOCC2)c(C)cc1C(=O)NC[C@@H](O)CNC1Cc2ccccc2C1 [Compound 122, (S)-N-(3-((2,3-dihydro-1H-inden-2-yl)amino)-2-hydroxypropyl)-2-ethoxy-5-methyl-4-(morpholine-4-carbonyl)benzamide]  166 nM
3. CCOc1cc(C(=O)N2C3CCC2COC3)ncc1C(=O)NC[C@@H](O)CNC1Cc2ccccc2C1 [Compound 126, 6-(3-oxa-8-azabicyclo[3.2.1]octane-8-carbonyl)-N-((S)-3-((2,3-dihydro-1H-inden-2-yl(amino-2-hydroxypropyl)-4-ethoxynicotinamidedihydrochloride]  226 nM
4. COc1cc(C(=O)N2C3CCC2COC3)ccc1C(=O)NC[C@@H](O)CNC1Cc2ccccc2C1 [Compound 134, 4-(3-Oxa-8-azabicyclo[3.2.1]octane-8-carbonyl)-N-((S)-3-((2,3-dihydro-1H-inden-2-yl)amino)-2-hydroxypropyl)-2-methoxybenzamide hydrochloride]  238 nM
5. CCOc1cc(-c2nnc(C)o2)ccc1C(=O)NC[C@@H](O)CNC1Cc2ccccc2C1 [Compound 116, (S)-N-(3-((2,3-dihydro-1H-inden-2-yl)amino)-2-hydroxypropyl)-2-ethoxy-4-(5-methyl-1,3,4-oxadiazol-2-yl)benzamide]  276 nM
6. CCOc1cc(CC(=O)N2C3CCC2COC3)ccc1C(=O)NC[C@@H](O)CNC1Cc2ccccc2C1 [Compound 129, 4-(2-(3-oxa-8-azabicyclo[3.2.1]octan-8-yl)-2-oxoethyl)-N-((S)-3-((2,3-dihydro-1H-inden-2-yl)amino)-2-hydroxypropyl)-2-ethoxybenzamide]  629 nM
7. CCOc1cc(C(=O)N2C3CCC2COC3)c(F)cc1C(=O)NC[C@@H](O)CNC1Cc2ccccc2C1 [Compound 141, 4-(3-oxa-8-azabicyclo[3.2.1]octane-8-carbonyl)-N—((S)-3-((2,3-dihydro-1H-inden-2-yl)amino)-2-hydroxypropyl)-2-ethoxy-5-fluorobenzamide]  695 nM
8. CC(=O)N1CC2CCC(C1)C2Nc1cccc(C(=O)NC[C@@H](O)CNC2Cc3ccccc3C2)c1 (stereo partly drawn) [Compound 139, 3-((3-Acetyl-3-azabicyclo[3.2.1]octan-8-yl)amino)-N—((S)-3-((2,3-dihydro-1H-inden-2-yl)amino)-2-hydroxypropyl)benzamide]  771 nM
9. CCOc1c(C(=O)NC[C@@H](O)CNC2Cc3ccccc3C2)ccc(C(=O)N2CCOCC2)c1C [Compound 130, (S)-N-(3-((2,3-dihydro-1H-inden-2-yl)amino)-2-hydroxypropyl)-2-ethoxy-3-methyl-4-(morpholine-4-carbonyl)benzamide]  1130 nM
10. O=C(NC[C@@H](O)CNC1Cc2ccccc2C1)c1ccccc1Cl [Compound 131, (S)-2-chloro-N-(3-((2,3-dihydro-1H-inden-2-yl)amino)-2-hydroxypropyl)benzamide]  4590 nM
11. CS(=O)(=O)Nc1cccc(C(=O)NC[C@@H](O)CNC2Cc3ccccc3C2)c1 [Compound 140, (S)—N-(3-((2,3-Dihydro-1H-inden-2-yl)amino)-2-hydroxypropyl)-3-(methylsulfonamido) benzamide]  4680 nM
12. O=C(NC[C@@H](O)CNC1Cc2ccccc2C1)c1cccc(OC(F)F)c1 [Compound 119, (S)-3-(difluoromethoxy)-N-(3-((2,3-dihydro-1H-inden-2-yl)amino)-2-hydroxypropyl)benzamide]  5080 nM
13. O=C(NC[C@@H](O)CNC1Cc2ccccc2C1)c1cccc2scnc12 [Compound 125, (S)-N-(3-((2,3-dihydro-1H-inden-2-yl)amino)-2-hydroxypropyl)benzo[d]thiazole-4-carboxamide]  6720 nM
14. O=C(NC[C@@H](O)CNC1Cc2ccccc2C1)c1cccc2[nH]cnc12 [Compound 120, (S)-N-(3-((2,3-dihydro-1H-inden-2-yl)amino)-2-hydroxypropyl)-1H-benzo[d]imidazole-4-carboxamide]  13300 nM
15. O=C(NC[C@@H](O)CNC1Cc2ccccc2C1)c1cccc2[nH]ncc12 [Compound 128, (S)-N-(3-((2,3-dihydro-1H-inden-2-yl)amino)-2-hydroxypropyl)-1H-indazole-4-carboxamide]  15400 nM
16. O=C(NC[C@@H](O)CNC1Cc2ccccc2C1)c1cccc(C(F)F)c1 [Compound 138, (S)-3-(difluoromethyl)-N-(3-((2,3-dihydro-1H-inden-2-yl)amino)-2-hydroxypropyl)benzamide]  16900 nM
17. O=C(NC[C@@H](O)CNC1Cc2ccccc2C1)c1cccc2cn[nH]c12 [Compound 132, (S)-N-(3-((2,3-dihydro-1H-inden-2-yl)amino)-2-hydroxypropyl)-1H-indazole-7-carboxamide]  29700 nM
18. O=C(NC[C@@H](O)CNC1Cc2ccccc2C1)c1ccccc1C(F)F [Compound 137, (S)-2-(difluoromethyl)-N-(3-((2,3-dihydro-1H-inden-2-yl)amino)-2-hydroxypropyl)benzamide]  47000 nM
19. O=C(NC[C@@H](O)CNC1Cc2ccccc2C1)c1ccccc1C(F)(F)F [Compound 118, (S)-N-(3-((2,3-dihydro-1H-inden-2-yl)amino)-2-hydroxypropyl)-2-(trifluoromethyl)benzamide]  103000 nM

Molecular target: T1, Full-length PRMT5 enzyme co-expressed with MEP50
Assay: PRMT5 Biochemical Assay
Settings: 200 nM histone H4 derived peptide substrate, 1 μM S-Adenosyl methionine, 4 hours at 37° C, Transcreener EPIGEN fluorescence polarisation
Procedure: as §1
The 6 μL assay reactions are run in Greiner brand black 384-well low volume plates. All reactions contained assay buffer (phosphate buffered saline, 0.01% (v/v) Tween-20, 0.01% (w/v) albumin from chicken egg white, 1 mM dithiothreitol, 200 nM peptide substrate, 1 μM S-Adenosyl methionine, and 15 ng/reaction enzyme, with the enzyme being omitted from negative control reactions. Compounds were added in a volume of 100 nL from dilution series prepared in DMSO, positive and negative control reactions receiving the same volume DMSO without compound. The plates were sealed with adhesive seals and incubated for 4 hours at 37° C. Reaction progress was measured using the Transcreener™ EPIGEN methyltransferase assay (BellBrook Labs, Madison, Wis.) as recommended by the manufacturer. To each reaction 2 μL detection mix were added, containing coupling enzymes, fluorescence polarisation tracer, and AMP antibody. Plates were incubated for 90 min before being read on a PerkinElmer EnVision™ plate reader in fluorescence polarisation mode.

In order of falling IC50:
1. Cc1nn(C)cc1-c1cc(C(=O)NC[C@H](O)CNC2Cc3ccccc3C2)no1 [Compound 5, (R)-N-(3-((2,3-Dihydro-1H-inden-2-yl)amino)-2-hydroxypropyl)-5-(1,3-dimethyl-1H-pyrazol-4-yl)isoxazole-3-carboxamide]  9780 nM
2. O=C(NC[C@H](O)CNC1Cc2ccccc2C1)c1cnn(-c2ccccc2)c1 [Compound 4, (R)-N-(3-((2,3-Dihydro-1H-inden-2-yl)amino)-2-hydroxypropyl)-1-phenyl-1H-pyrazole-4-carboxamide]  3790 nM
3. O=C(NC[C@H](O)CNC1Cc2ccccc2C1)c1cnn(-c2ccc(F)cc2)c1 [Compound 9, (R)-N-(3-((2,3-Dihydro-1H-inden-2-yl)amino)-2-hydroxypropyl)-1-(4-fluorophenyl)-1H-pyrazole-4-carboxamide]  3720 nM
4. COc1ccc(-c2cc(C(=O)NC[C@H](O)CNC3Cc4ccccc4C3)no2)cc1 [Compound 6, (R)-N-(3-((2,3-Dihydro-1H-inden-2-yl)amino)-2-hydroxypropyl)-5-(4-methoxyphenyl)isoxazole-3-carboxamide]  1550 nM
5. O=C(NC[C@H](O)CNC1Cc2ccccc2C1)c1cnn(-c2cccc(Cl)c2)c1 [Compound 10, (R)-1-(3-Chlorophenyl)-N-(3-((2,3-dihydro-1H-inden-2-yl)amino)-2-hydroxypropyl)-1H-pyrazole-4-carboxamide]  1440 nM
6. O=C(NC[C@H](O)CNC1Cc2ccccc2C1)c1ccc(N2CCOCC2)nc1 [Compound 11, (R)-N-(3-((2,3-Dihydro-1H-inden-2-yl)amino)-2-hydroxypropyl)-6-morpholinonicotinamide]  830 nM
7. O=C(NCC(O)CNC1Cc2ccccc2C1)c1ccc(Cl)cc1 (stereo not shown) [Compound 1, 4-Chloro-N-(3-((2,3-dihydro-1H-inden-2-yl)amino)-2-hydroxypropyl)benzamide]  792 nM
8. Cc1nnc(-c2ccc(C(=O)NC[C@H](O)CNC3Cc4ccccc4C3)cc2)o1 [Compound 12, (R)-N-(3-((2,3-Dihydro-1H-inden-2-yl)amino)-2-hydroxypropyl)-4-(5-methyl-1,3,4-oxadiazol-2-yl)benzamide]  695 nM
9. Cc1nc(-c2ccc(C(F)(F)F)cc2)sc1C(=O)NC[C@H](O)CNC1Cc2ccccc2C1 [Compound 3, (R)—N-(3-((2,3-Dihydro-1H-inden-2-yl)amino)-2-hydroxypropyl)-4-methyl-2-(4-(trifluoromethyl)phenyl)thiazole-5-carboxamide]  309 nM
